# Measurements as given in patent US6375942B1, “Skin healing ointment” (priority 1999, dated 2002).
# Tested on: severe persistent rash caused by poison ivy
# Experiment: Case 1: ointment test on sufferer
# Type: in vivo, Human
# Settings: adult; prescribed by dermatologist
# Source text: They then sought out other sufferers on whom to test their ointment. The results follow:
# Case 1: adult suffering from severe persistent rash caused by poison ivy. […] Application of ointment only once per day completely healed subject in 2½ days.
smiles,measurement,value
CCCCC(=O)O[C@]1(C(=O)CO)[C@@H](C)C[C@H]2[C@@H]3CCC4=CC(=O)C=C[C@]4(C)[C@@]3(F)[C@@H](O)C[C@@]21C [valisone],outcome of prescribed treatment,without success
